Data from PMC7016953 (Cells, 2020).

How the values were obtained:
[1] = system: PC12 cells (native TRPC3 channel complexes); test: Whole-cell patch-clamp recordings in PC12 cells; format: cell-based, rat; conditions: 50 µM artemisinin, whole cell
Experimental: (§1) The recordings of TRPC3, TRPC6, or TRPC7 membrane currents in HEK293 or PC12 cells were realized by using a Multiclamp 700B amplifier with a Digidata 1440A digitizer controlled by the PClamp 10 software (all Molecular Devices, Sunnyvale, CA, U.S.A.). Recordings were obtained at room temperature either in the whole-cell or in an outside-out configuration as indicated. Cells were seeded as described above, but at lower density, mounted in a chamber (Warner Instruments, Hamden, CT; U.S.A.), placed onto the stage of an inverted microscope, and perfused with required solution. The standard extracellular solution contained 140 mM NaCl, 5 mM CsCl, 2 mM MgCl2, 1 mM CaCl2, 10 mM HEPES, and 0.035% BSA adjusted to pH 7.4 with NaOH. The composition of standard intracellular solution was 140 mM CsCl, 1 mM MgCl2, 5 mM EGTA, and 10 mM HEPES adjusted to pH 7.25 with CsOH; the osmolarity was 295 mOsm l^−1. In outside-out measurements, the pipette solution contained 5 mM EGTA and 1.1 mM CaCl2 to achieve a calculated free Ca^2+ concentration of 100 nM.
Patch pipettes were pulled from borosilicate glass capillaries BG150F-8P (Science Products, Hofheim, Germany) with a PIP6 pipette puller (HEKA Elektronik, Lambrecht, Germany). […] In all whole-cell measurements, the series resistance was lower than 13 MΩ, and compensated by 70%. If the access was unstable during the experiment (increase in series resistance by more than 15% at the end of the experiment), the cell was omitted from the analysis. To record current/voltage (I/V) curves, voltage ramps (400 mV s^−1) ranging from –100 to +100 mV were applied. Currents were filtered at 3 kHz with a four-pole Bessel filter and sampled at 10 kHz. […]
Figure 9 Artemisinin-induced ionic currents in HEK293 cells and in PC12 cells are sensitive to established TRPC3 inhibitors. […] Concentration–response curves were normalized to responses measured without an inhibitor (controls), and IC50 values were obtained by fitting a four-parameter Hill equation to the data. […]

[2] = system: parental HEK293 cells; test: MTT cell viability assay; format: cell-based, human; conditions: 24 h
Experimental: Cells were seeded in poly-L-lysine-coated 96-well plates at a density of 10,000 cells per well. After 24 h, the medium was exchanged, and compounds or the corresponding solvent were added and incubated for another 24 h. Then, the medium was removed, and a fresh medium containing 0.5 mg/mL MTT was added. After 3 h of incubation, supernatants were aspirated, and cells containing formazan crystals were lysed with 100% DMSO. Finally, absorbance of DMSO-dissolved formazan was measured at 560 and 670 nm with a plate reader (Polarstar Omega, BMG Labtech, Germany). The differences of both extinctions were calculated, and values were normalized to a solvent control (0.25% DMSO).

[3] = target: T1, TRPC3 (Homo sapiens, UniProt Q13507); test: Outside-out patch recordings from HEK TRPC3-YFP cells; format: cell-based; conditions: 50 µM, outside-out patches, −100 mV, n = 6
T1 construct: expressed in transfected cells
T1 sequence (Q13507 1-848 isoform Q13507-3): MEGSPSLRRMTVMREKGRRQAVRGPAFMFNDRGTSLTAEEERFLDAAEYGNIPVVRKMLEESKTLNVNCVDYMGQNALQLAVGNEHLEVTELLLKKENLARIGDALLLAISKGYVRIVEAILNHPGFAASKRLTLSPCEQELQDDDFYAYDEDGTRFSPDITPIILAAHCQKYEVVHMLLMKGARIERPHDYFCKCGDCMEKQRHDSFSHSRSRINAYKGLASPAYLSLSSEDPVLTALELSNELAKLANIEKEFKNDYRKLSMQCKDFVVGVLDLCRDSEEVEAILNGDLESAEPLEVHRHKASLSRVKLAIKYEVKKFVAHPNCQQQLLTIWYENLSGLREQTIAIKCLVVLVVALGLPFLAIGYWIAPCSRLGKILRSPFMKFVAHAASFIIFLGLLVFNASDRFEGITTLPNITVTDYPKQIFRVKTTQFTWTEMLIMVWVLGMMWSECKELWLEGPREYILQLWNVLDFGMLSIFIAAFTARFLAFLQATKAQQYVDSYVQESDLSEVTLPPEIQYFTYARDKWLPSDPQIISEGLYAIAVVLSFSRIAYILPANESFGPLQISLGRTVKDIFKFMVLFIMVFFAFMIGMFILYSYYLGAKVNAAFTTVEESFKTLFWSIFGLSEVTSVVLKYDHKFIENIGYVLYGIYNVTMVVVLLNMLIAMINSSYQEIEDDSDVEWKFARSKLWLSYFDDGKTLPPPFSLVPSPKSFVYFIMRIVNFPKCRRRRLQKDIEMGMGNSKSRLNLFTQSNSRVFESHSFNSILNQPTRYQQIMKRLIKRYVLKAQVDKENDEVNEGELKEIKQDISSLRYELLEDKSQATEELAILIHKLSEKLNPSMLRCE
Experimental: as §1, with “nM. […]” for “nM.”
Outside-out patches were obtained from HEKTRPC3-YFP cells, and ionic currents were continuously recorded at a patch potential of –100 mV. […] (B) The open probability (Po) for the unknown number N of channels in the patch of the experiment shown in (A) was calculated over 2 s bins and plotted at the same time scale.

[4] = target: T1, TRPC3; test: Fluo-4 Ca2+ influx assay in HEK TRPC3-YFP cell suspensions; format: cell-based

increase in the open probability [3]: about 5.5 fold | EC50 of artemisinin under simultaneous application of OAG ([4]; 10–100 µM OAG co-applied): not affected | EC50 ([4]; fluo-4, HEK TRPC3-YFP cell suspensions, read-out: potency to activate Ca2+ entry through TRPC3): 32.8 µM
Structure (SMILES): C[C@@H]1CC[C@H]2[C@@H](C)C(=O)O[C@@H]3O[C@@]4(C)CC[C@@H]1[C@]32OO4 [artemisinin]
currents in PC12 cells [1]: induced a Ca^2+ influx and TRPC3-like currents | metabolic activity (MTT test) ([2]; 100 µM): slight and statistically significant reduction of metabolic activity | metabolic activity (MTT test) ([2]; concentrations up to 50 µM): did not reduce the metabolic activity | fluorescence signal of the Ca2+ indicator in primary screen ([4]; 20 µM, acute addition): immediate and transient increase in the fluorescence signal | Ca2+ influx signals after preincubation with OAG ([4]; preincubation with 500 nM, 1 µM, or 5 µM OAG): did not induce stronger Ca^2+ influx signals
